pKi: −log10 of the molar value. Counter-ions that a name gives are not always drawn.
The compounds below were run against T1, human histamine H4 receptor (Homo sapiens, UniProt Q9H3N8) (assay: Binding Assay on Recombinant Human Histamine H4 Receptor). Settings: not given.
T1 construct: expressed in transfected cells; host or cells: SK-N-MC cells or COS7 cells, transiently transfected; cell membranes used
T1 sequence (Q9H3N8 whole entry): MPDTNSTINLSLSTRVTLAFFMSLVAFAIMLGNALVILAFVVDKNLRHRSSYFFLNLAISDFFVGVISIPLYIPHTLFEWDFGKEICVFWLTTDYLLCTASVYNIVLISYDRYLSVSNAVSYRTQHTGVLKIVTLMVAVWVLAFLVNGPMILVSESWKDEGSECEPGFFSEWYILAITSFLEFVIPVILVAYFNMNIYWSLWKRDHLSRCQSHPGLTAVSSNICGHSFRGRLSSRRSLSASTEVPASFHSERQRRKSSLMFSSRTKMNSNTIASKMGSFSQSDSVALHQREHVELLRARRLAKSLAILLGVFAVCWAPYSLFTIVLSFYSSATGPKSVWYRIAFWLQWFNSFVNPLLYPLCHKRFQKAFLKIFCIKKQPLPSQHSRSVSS
Experimental: Binding Assay on Recombinant Human Histamine H4 Receptor
SK-N-MC cells or COS7 cells were transiently transfected with pH4R and grown in 150 cm^2 tissue culture dishes. Cells were washed with saline solution, scraped with a cell scraper and collected by centrifugation (1000 rpm, 5 min). Cell membranes were prepared by homogenization of the cell pellet in 20 mM Tris-HCl with a polytron tissue homogenizer for 10 sec at high speed. Homogenate was centrifuged at 1000 rpm for 5 min at 4° C. […] The final pellet was resuspended in 50 mM Tris-HCl. Cell membranes were incubated with ^3H-histamine (5-70 nM) in the presence or absence of excess histamine (10,000 nM). […] Membranes were harvested by rapid filtration over Whatman GF/C filters and washed 4 times with ice-cold 50 mM Tris HCl. Filters were then dried, mixed with scintillant and counted for radioactivity. SK-N-MC or COS7 cells expressing human histamine H4 receptor were used to measure the affinity of binding of other compounds and their ability to displace ^3H-ligand binding by incubating the above-described reaction in the presence of various concentrations of inhibitor or compound to be tested.
Compound `Nc1nc(N2C[C@H]3C[C@@H]2CN3)c2oc3ccc(Cl)cc3c2n1` [Example 81, (R,R)-8-Chloro-4-(2,5-diaza-bicyclo[2.2.1]hept-2-yl)-benzo[4,5]furo[3,2-d]pyrimidin-2-ylamine trifluoroacetic acid salt] has a pKi of 7.00. `Nc1nc(N2CC3CCCNC3C2)c2sc3ccc(Cl)cc3c2n1` (stereo not shown) [Example 64, 8-Chloro-4-(octahydro-pyrrolo[3,4-b]pyridin-6-yl)-benzo[4,5]thieno[3,2-d]pyrimidin-2-ylamine trifluoroacetic acid salt] showed a pKi of 8.30. With `Nc1nc(N2CC3CCCNC3C2)c2oc3ncccc3c2n1` (stereo not shown) [Example 43, 8-(Octahydro-pyrrolo[3,4-b]pyridin-6-yl)-9-oxa-1,5,7-triaza-fluoren-6-ylamine] the pKi was 7.06. `Nc1nc(N2C[C@@H]3C[C@H]2CN3)c2sc3ccc(Br)cc3c2n1` [Example 49, (S,S)-8-Bromo-4-(2,5-diaza-bicyclo[2.2.1]hept-2-yl)-benzo[4,5]thieno[3,2-d]pyrimidin-2-ylamine hydrochloride salt] was tested, and the pKi was 6.46. `Nc1nc(N2CC3CCNC3C2)c2oc3ccc(Cl)cc3c2n1` (stereo not shown) [Example 80, 8-Chloro-4-(hexahydro-pyrrolo[3,4-b]pyrrol-5-yl)-benzo[4,5]furo[3,2-d]pyrimidin-2-ylamine trifluoroacetic acid salt] showed a pKi of 8.44.

Same assay, conditions: competition binding with 3H-histamine (5 nM), membranes of SK-N-MC or COS7 cells expressing human H4 receptor; Cheng-Prusoff, KD 5 nM; average of results obtained; read-out: Ki
Compound `Nc1nc(N2CCC[C@H](N)C2)c2oc3ccc(Cl)c(Cl)c3c2n1` [Example 93, (S)-4-(3-Amino-piperidin-1-yl)-8,9-dichloro-benzo[4,5]furo[3,2-d]pyrimidin-2-ylamine trifluoroacetic acid salt] has a pKi of under 5.00. For `Nc1nc(N2CCCNCC2)c2oc3c(Cl)cc(Cl)cc3c2n1` [Example 32, 6,8-Dichloro-4-[1,4]diazepan-1-yl-benzo[4,5]furo[3,2-d]pyrimidin-2-ylamine trifluoroacetic acid salt], the pKi was 6.80. `C[C@@H]1CN(c2nc(N)nc3c2oc2ccc(Cl)cc23)[C@@H](C)CN1` [Example 130, (2S,5R)-8-Chloro-4-(2,5-dimethyl-piperazin-1-yl)-benzo[4,5]furo[3,2-d]pyrimidin-2-ylamine trifluoroacetic acid salt] gave a pKi of 6.85. For `CNC1CCN(c2nc(NCCO)nc3c2oc2ccc(Cl)cc23)C1` (stereo not shown) [Example 126, 2-[8-Chloro-4-(3-methylamino-pyrrolidin-1-yl)-benzo[4,5]furo[3,2-d]pyrimidin-2-ylamino]-ethanol], the pKi was 6.68. For `CN1CCN(c2nc(NCCO)nc3c2oc2ccc(Cl)cc23)CC1` [Example 115, 2-[8-Chloro-4-(4-methyl-piperazin-1-yl)-benzo[4,5]furo[3,2-d]pyrimidin-2-ylamino]-ethanol], the pKi was 8.37. `CN1CCN(c2nc(N)nc3c2sc2ccc(Cl)cc23)CC1` [Example 67, 8-Chloro-4-(4-methyl-piperazin-1-yl)-benzo[4,5]thieno[3,2-d]pyrimidin-2-ylamine trifluoroacetic acid salt] gave a pKi of 7.85. `COc1cccc2oc3c(N4CCC[C@H](N)C4)nc(N)nc3c12` [Example 87, (S)-4-(3-Amino-piperidin-1-yl)-9-methoxy-benzo[4,5]furo[3,2-d]pyrimidin-2-ylamine trifluoroacetic acid salt] was tested, and the pKi was under 5.00. For `CN[C@H]1CCN(c2nc(N)nc3c2sc2cc(Cl)ccc23)C1` [Example 61, (S)-7-Chloro-4-(3-methylamino-pyrrolidin-1-yl)-benzo[4,5]thieno[3,2-d]pyrimidin-2-ylamine trifluoroacetic acid salt], the pKi was 7.48. `Nc1nc(NC2CNC2)c2oc3ccc(Cl)cc3c2n1` [Example 111, N^4-Azetidin-3-yl-8-chloro-benzo[4,5]furo[3,2-d]pyrimidine-2,4-diamine trifluoroacetic acid salt] was tested, and the pKi was 6.48. Work on `CN1CCN(c2nc(N)nc3c2oc2cccc(Cl)c23)CC1` [Example 151, 9-Chloro-4-(4-methyl-piperazin-1-yl)-benzo[4,5]furo[3,2-d]pyrimidin-2-ylamine trifluoroacetic acid salt] yielded a pKi of 7.13. Work on `NCCNc1nc(N)nc2c1oc1ccc(Cl)cc12` [Example 112, N^4-(2-Amino-ethyl)-8-chloro-benzo[4,5]furo[3,2-d]pyrimidine-2,4-diamine trifluoroacetic acid salt] yielded a pKi of 7.39. In the case of `COc1ccc2oc3c(N4CCN(C)CC4)nc(NCCO)nc3c2c1` [Example 118, 2-[8-Methoxy-4-(4-methyl-piperazin-1-yl)-benzo[4,5]furo[3,2-d]pyrimidin-2-ylamino]-ethanol], the pKi was 6.70. For `Nc1nc(N2CCC[C@H](N)C2)c2oc3cccc(Cl)c3c2n1` [Example 154, (S)-4-(3-Amino-piperidin-1-yl)-9-chloro-benzo[4,5]furo[3,2-d]pyrimidin-2-ylamine trifluoroacetic acid salt], the pKi was under 5.00. Work on `Nc1nc(N2CCC[C@H](N)C2)c2oc3ccc(F)c(F)c3c2n1` [Example 147, (S)-4-(3-Amino-piperidin-1-yl)-8,9-difluoro-benzo[4,5]furo[3,2-d]pyrimidin-2-ylamine trifluoroacetic acid salt] yielded a pKi of under 5.00. For `NC1CN(c2nc(NCCO)nc3c2oc2ccc(Cl)cc23)C1` [Example 162, 2-[4-(3-Amino-azetidin-1-yl)-8-chloro-benzo[4,5]furo[3,2-d]pyrimidin-2-ylamino]-ethanol], the pKi was under 5.00. `C[C@@H]1CNCCN1c1nc(N)nc2c1oc1ccc(Cl)cc12` [Example 132, (R)-8-Chloro-4-(2-methyl-piperazin-1-yl)-benzo[4,5]furo[3,2-d]pyrimidin-2-ylamine trifluoroacetic acid salt] showed a pKi of 6.92. For `COc1cccc2oc3c(N4CCN(C)CC4)nc(N)nc3c12` [Example 88, 9-Methoxy-4-(4-methyl-piperazin-1-yl)-benzo[4,5]furo[3,2-d]pyrimidin-2-ylamine trifluoroacetic acid salt], the pKi was 7.52. In the case of `Nc1nc(N2CCC[C@H](N)C2)c2oc3cccc(C(F)(F)F)c3c2n1` [Example 92, (S)-4-(3-Amino-piperidin-1-yl)-9-trifluoromethyl-benzo[4,5]furo[3,2-d]pyrimidin-2-ylamine citrate salt], the pKi was under 5.00. Work on `CN1CCN(c2nc(N)nc3c2sc2cc(Cl)ccc23)CC1` [Example 63, 7-Chloro-4-(4-methyl-piperazin-1-yl)-benzo[4,5]thieno[3,2-d]pyrimidin-2-ylamine trifluoroacetic acid salt] yielded a pKi of 7.72. With `Nc1nc(N2CC(N)C2)c2oc3ccc(F)c(F)c3c2n1` [Example 150, 4-(3-Amino-azetidin-1-yl)-8,9-difluoro-benzo[4,5]furo[3,2-d]pyrimidin-2-ylamine trifluoroacetic acid salt] the pKi was 5.27. Compound `CC(C)N1CCCN(c2nc(N)nc3c2oc2ccc(Cl)cc23)CC1` [Example 3, 8-Chloro-4-(4-isopropyl-[1,4]diazepan-1-yl)-benzo[4,5]furo[3,2-d]pyrimidin-2-ylamine trifluoroacetic acid salt] has a pKi of 7.12. Work on `CN[C@H]1CCN(c2nc(N)nc3c2oc2ccc(Cl)cc23)C1` [Example 17, (S)-8-Chloro-4-(3-methylamino-pyrrolidin-1-yl)-benzo[4,5]furo[3,2-d]pyrimidin-2-ylamine] yielded a pKi of 8.68. For `Nc1nc(N2CCN3CCCCC3C2)c2oc3ccc(Cl)cc3c2n1` (stereo not shown) [Example 8, 8-Chloro-4-(octahydro-pyrido[1,2-a]pyrazin-2-yl)-benzo[4,5]furo[3,2-d]pyrimidin-2-ylamine], the pKi was 7.80.
